From publication PMC6028563, “Probing Substituents in the 1- and 3-Position: Tetrahydropyrazino-Annelated Water-Soluble Xanthine Derivatives as Multi-Target Drugs With Potent Adenosine Receptor Antagonistic Activity” (Frontiers in Chemistry, 2018)
Like-named read-outs stand apart in the source and are kept apart here.

Experiments:
recombinant human MAO-A = biological target: T1, recombinant human MAO-A (Homo sapiens, UniProt P21397); experiment: Monoamine oxidase assay (Amplex Red), MAO-A; assay type: biochemical; conditions: for inhibition at 10 µM: at 10,000 nM, read-out: % inhibition at indicated concentration, Human MAO-A; for IC50: n = 3, read-out: IC50 ± SEM, Human MAO-A
T1 construct: purchased Sigma-Aldrich M7316; host or cells: baculovirus-infected insect cells
T1 sequence (P21397 1-527): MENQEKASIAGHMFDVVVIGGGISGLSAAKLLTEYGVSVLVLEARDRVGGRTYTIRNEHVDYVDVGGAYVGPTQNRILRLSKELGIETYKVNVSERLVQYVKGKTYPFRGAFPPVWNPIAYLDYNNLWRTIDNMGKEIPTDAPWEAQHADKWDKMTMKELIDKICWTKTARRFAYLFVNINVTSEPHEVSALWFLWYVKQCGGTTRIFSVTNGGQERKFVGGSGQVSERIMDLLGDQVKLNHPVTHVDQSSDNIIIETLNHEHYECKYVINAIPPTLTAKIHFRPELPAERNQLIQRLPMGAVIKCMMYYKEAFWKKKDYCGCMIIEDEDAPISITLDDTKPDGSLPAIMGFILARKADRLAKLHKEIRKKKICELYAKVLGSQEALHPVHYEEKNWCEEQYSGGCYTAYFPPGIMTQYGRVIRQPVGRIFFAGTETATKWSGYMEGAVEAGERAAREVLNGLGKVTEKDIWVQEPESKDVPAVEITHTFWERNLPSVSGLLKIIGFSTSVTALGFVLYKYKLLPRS
Summary of the method: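 Inhibition was measured with an Amplex Red monoamine oxidase assay, using human MAO-A and MAO-B produced recombinantly in baculovirus-infected insect cells. For rat MAO-B, liver mitochondria-enriched fractions from male Sprague Dawley rats served as enzyme source.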

human A2A AR = biological target: T2, human A2A AR (Homo sapiens, UniProt P29274); experiment: Radioligand binding assay at human A2A AR vs. [^3H]MSX-2; conditions: CHO cell membranes, n = 3, read-out: Ki ± SEM, A2A vs. [^3H]MSX-2
T2 construct: expressed in transfected cells; host or cells: CHO cells
Summary of the method: (§1)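 Competition binding; rat A1: brain cortex membranes; rat A2A: brain striatum membranes; human A1/A2A/A2B/A3: membranes from CHO cells each expressing one human subtype. Affinity only, no functional testing.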

rat A2A AR = biological target: T3, rat A2A AR (Rattus norvegicus, UniProt P30543); experiment: Radioligand binding assay at rat A2A AR (rat brain striatum) vs. [^3H]MSX-2; conditions: rat (r); for % inhibition of radioligand binding at indicated concentration, A2A vs. [^3H]MSX-2: at 1,000 nM; for Ki: rat brain striatum, n = 3, read-out: Ki ± SEM, A2A vs. [^3H]MSX-2
T3 construct: A2A ARs of rat brain striatal membrane preparations; from tissue; host or cells: rat brain striatum membranes
Summary of the method: as §1

[1] = Thermodynamic solubility measurements; assay type: physicochemical; conditions: thermodynamic from solid
Text: This is expected to facilitate dissolution in the stomach. Depending on the substitution pattern they may also be well soluble at higher pH values (Brunschweiger et al., [2014]). In the present study we measured thermodynamic solubility of only very few compounds exemplarily (14a-e, 14g, 15f,g) and confirmed their high solubility at pH 1 (see Table S1 in Supplementary Material). Most of these compounds were still soluble at pH 7.4. The best soluble derivative was the 3-ethyl-1-methyl-8-m-fluorobenzyl derivative 14g with solubilities of >1.5 g/L (4.2 mM) at pH 1, 50 mg/L (0.14 mM) at pH 4, and 40 mg/L ([…]) at pH 7.4.
Table S1. Solubility of selected compounds at three different pH values (in mg/mL).a
Compound pH 1 pH 4 pH 7.4
adetermined by thermodynamic solubility measurements.

[2] = aqueous buffer, pH 4, thermodynamic solubility, read-out: Solubility, pH 4
[3] = aqueous buffer, pH 7.4, thermodynamic solubility, read-out: Solubility, pH 7.4
[4] = simulated gastric fluid, pH 1, thermodynamic solubility, read-out: Solubility, pH 1

T3 sequence (P30543 whole entry): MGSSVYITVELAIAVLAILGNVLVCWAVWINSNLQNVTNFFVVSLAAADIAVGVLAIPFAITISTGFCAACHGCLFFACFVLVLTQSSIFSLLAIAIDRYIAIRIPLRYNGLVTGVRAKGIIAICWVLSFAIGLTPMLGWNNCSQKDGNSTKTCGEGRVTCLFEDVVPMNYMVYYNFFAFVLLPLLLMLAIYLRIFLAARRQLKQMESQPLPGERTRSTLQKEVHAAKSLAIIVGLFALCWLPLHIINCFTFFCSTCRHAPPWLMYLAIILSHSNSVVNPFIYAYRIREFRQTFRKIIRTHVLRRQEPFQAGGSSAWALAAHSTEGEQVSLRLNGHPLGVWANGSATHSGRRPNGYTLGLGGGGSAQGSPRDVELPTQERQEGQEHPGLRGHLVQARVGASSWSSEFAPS
T2 sequence (P29274 whole entry): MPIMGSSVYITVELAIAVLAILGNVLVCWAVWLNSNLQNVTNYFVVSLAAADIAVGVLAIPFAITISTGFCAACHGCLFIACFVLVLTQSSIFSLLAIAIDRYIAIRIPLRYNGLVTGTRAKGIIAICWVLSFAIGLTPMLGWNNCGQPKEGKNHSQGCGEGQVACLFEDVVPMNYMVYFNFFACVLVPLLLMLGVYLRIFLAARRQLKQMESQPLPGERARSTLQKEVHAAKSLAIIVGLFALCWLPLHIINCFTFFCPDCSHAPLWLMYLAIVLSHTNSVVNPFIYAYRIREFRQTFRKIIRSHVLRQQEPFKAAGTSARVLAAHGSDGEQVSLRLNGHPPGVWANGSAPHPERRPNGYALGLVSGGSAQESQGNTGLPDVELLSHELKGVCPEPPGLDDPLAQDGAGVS

| inhibition at 10 µM (recombinant human MAO-A) | IC50 (recombinant human MAO-A) | Ki (human A2A AR) | Ki (rat A2A AR) | SMILES | further results |
| --- | --- | --- | --- | --- | --- |
| -10% | > 10000 nM | 756 ± 271 nM | > 1000 nM | CCn1c(=O)c2c(nc3n2CCN(Cc2ccc(F)c(Br)c2)C3)n(CC)c1=O [Compound 15k, 8-(3-bromo-4-fluorobenzyl)-1,3-diethyl-6,7,8,9-tetrahydropyrazino[2,1-f]purine-2,4(1H,3H)-dione] | % inhibition of radioligand binding at indicated concentration, A2A vs. [^3H]MSX-2 (rat A2A AR): 30% |
| 1% | > 10000 nM | 631 ± 122 nM | 2200 nM | CCn1c(=O)c2c(nc3n2CCN(Cc2cc(Cl)cc(Cl)c2)C3)n(CC)c1=O [Compound 15m, 8-(3,5-dichlorobenzyl)-1,3-diethyl-6,7,8,9-tetrahydropyrazino[2,1-f]purine-2,4(1H,3H)-dione] | – |
| 8% | > 10000 nM | 2230 nM | 1490 nM | CCn1c(=O)n(C)c(=O)c2c1nc1n2CCN(Cc2cc(Cl)cc(Cl)c2)C1 [Compound 16b, 8-(3,5-dichlorobenzyl)-1-ethyl-3-methyl-6,7,8,9-tetrahydropyrazino[2,1-f]purine-2,4(1H,3H)-dione] | – |
| 7% | > 10000 nM | – | 3940 nM | Cn1c(=O)c2c(nc3n2CCN(Cc2ccc(Cl)c(Cl)c2)C3)n(C2CC2)c1=O [Compound 17, 8-(3,4-dichlorobenzyl)-1-cyclopropyl-3-methyl-6,7,8,9-tetrahydropyrazino[2,1-f]purine-2,4(1H,3H)-dione] | – |
| 15% | > 10000 nM | 1700 nM | 880 ± 174 nM | CCn1c(=O)c2c(nc3n2CCN(Cc2cc(Br)ccc2F)C3)n(C)c1=O [Compound 14o, 8-(5-bromo-2-fluorobenzyl)-3-ethyl-1-methyl-6,7,8,9-tetrahydropyrazino[2,1-f]purine-2,4(1H,3H)-dione] | – |
| 23% | > 10000 nM | 906 ± 73 nM | 617 ± 114 nM | CCn1c(=O)c2c(nc3n2CCN(Cc2cc(Cl)ccc2Cl)C3)n(C)c1=O [Compound 14j, 8-(2,5-dichlorobenzyl)-3-ethyl-1-dimethyl-6,7,8,9-tetrahydropyrazino[2,1-f]purine-2,4(1H,3H)-dione] | – |

The remaining lines, values behind:

| SMILES | inhibition at 10 µM (recombinant human MAO-A) | IC50 (recombinant human MAO-A) | Ki (human A2A AR) | Ki (rat A2A AR) | further results |
| --- | --- | --- | --- | --- | --- |
| CCn1c(=O)c2c(nc3n2CCN(Cc2cc(F)c(F)c(F)c2)C3)n(CC)c1=O [Compound 15r, 1,3-diethyl-8-(3,4,5-trifluorobenzyl)-6,7,8,9-tetrahydropyrazino[2,1-f]purine-2,4(1H,3H)-dione] | 7% | > 10000 nM | 4110 nM | > 1000 nM | % inhibition of radioligand binding at indicated concentration, A2A vs. [^3H]MSX-2 (rat A2A AR): 36% |
| CCn1c(=O)c2c(nc3n2CCN(Cc2cc(Br)ccc2F)C3)n(CC)c1=O [Compound 15l, 8-(5-bromo-2-fluorobenzyl)-1,3-diethyl-6,7,8,9-tetrahydropyrazino[2,1-f]purine-2,4(1H,3H)-dione] | 8% | > 10000 nM | 598 ± 92 nM | 756 ± 46 nM | – |
| CCn1c(=O)c2c(nc3n2CCN(Cc2cccc(Br)c2)C3)n(C)c1=O [Compound 14b, 8-(3-bromobenzyl)-3-ethyl-1-methyl-6,7,8,9-tetrahydropyrazino[2,1-f]purine-2,4(1H,3H)-dione] | – | – | – | 1140 nM | solubility [1, 2]: 1 µg/mL; solubility [1, 3]: 0.9 µg/mL; solubility [1, 4]: 100 µg/mL |
| CCn1c(=O)c2c(nc3n2CCN(Cc2cc(C(F)(F)F)ccc2Cl)C3)n(C)c1=O [Compound 14m, 8-(2-chloro-5-(trifluoromethyl)benzyl)-3-ethyl-1-methyl-6,7,8,9-tetrahydropyrazino[2,1-f]purine-2,4(1H,3H)-dione] | 9% | > 10000 nM | 881 ± 96 nM | 592 ± 28 nM | – |
| C#CCn1c(=O)c2c(nc3n2CCN(Cc2cc(C(F)(F)F)ccc2Cl)C3)n(C)c1=O [Compound 19b, 8-(2-chloro-5-(trifluoromethyl)benzyl)-1-methyl-3-propargyl-6,7,8,9-tetrahydropyrazino[2,1-f]purine-2,4(1H,3H)-dione] | 5% | > 10000 nM | 712 ± 129 nM | 414 ± 49 nM | – |
| CCn1c(=O)c2c(nc3n2CCN(Cc2cc(C(F)(F)F)ccc2Cl)C3)n(CC)c1=O [Compound 15n, 8-(2-chloro-5-(trifluoromethyl)benzyl)-1,3-diethyl-6,7,8,9-tetrahydropyrazino[2,1-f]purine-2,4(1H,3H)-dione] | -4% | > 10000 nM | 613 ± 34 nM | 871 ± 50 nM | – |
| CCn1c(=O)c2c(nc3n2CCN(Cc2ccc(Br)cc2)C3)n(C)c1=O [Compound 14c, 8-(4-bromobenzyl)-3-ethyl-1-methyl-6,7,8,9-tetrahydropyrazino[2,1-f]purine-2,4(1H,3H)-dione] | 2% | > 10000 nM | – | > 1000 nM | solubility [1, 2]: 6 µg/mL; solubility [1, 3]: 3 µg/mL; solubility [1, 4]: 1300 µg/mL; % inhibition of radioligand binding at indicated concentration, A2A vs. [^3H]MSX-2 (rat A2A AR): 35% |
| C#CCn1c(=O)c2c(nc3n2CCN(Cc2ccc(Cl)c(Cl)c2)C3)n(C)c1=O [Compound 19a, 8-(3,4-dichlorobenzyl)-1-methyl-3-propargyl-6,7,8,9-tetrahydropyrazino[2,1-f]purine-2,4(1H,3H)-dione] | 12% | > 10000 nM | 1580 nM | 642 ± 194 nM | – |
| CCn1c(=O)n(C)c(=O)c2c1nc1n2CCN(Cc2ccc(Cl)c(Cl)c2)C1 [Compound 16a, 8-(3,4-dichlorobenzyl)-1-ethyl-3-methyl-6,7,8,9-tetrahydropyrazino[2,1-f]purine-2,4(1H,3H)-dione] | 6% | > 10000 nM | 1620 nM | 1100 nM | – |
| C#CCn1c(=O)c2c(nc3n2CCN(c2cccc(OC)c2)C3)n(CC)c1=O [Compound 20c, 1-ethyl-8-(3-methoxyphenyl)-3-propargyl-6,7,8,9-tetrahydropyrazino[2,1-f]purine-2,4(1H,3H)-dione] | 6% | > 10000 nM | 289 ± 85 nM | 250 ± 80 nM | – |
| CCn1c(=O)c2c(nc3n2CCN(Cc2cc(C(F)(F)F)ccc2F)C3)n(CC)c1=O [Compound 15j, 1,3-diethyl-8-(2-fluoro-5-(trifluoromethyl)benzyl)-6,7,8,9-tetrahydropyrazino[2,1-f]purine-2,4(1H,3H)-dione] | 7% | > 10000 nM | 781 ± 68 nM | 600 ± 54 nM | – |
| CCn1c(=O)c2c(nc3n2CCN(Cc2cccc(F)c2)C3)n(C)c1=O [Compound 14g, 3-ethyl-8-(3-fluorobenzyl)-1-methyl-6,7,8,9-tetrahydropyrazino[2,1-f]purine-2,4(1H,3H)-dione] | – | – | – | > 1000 nM | solubility ([1]; aqueous solution, aqueous buffer, pH 4, molar value in brackets, read-out: solubility at pH 4): 140 µM; solubility ([1]; aqueous solution, aqueous buffer, pH 4, read-out: solubility at pH 4): 50 µg/mL; solubility ([1]; aqueous solution, aqueous buffer, pH 7.4, molar value in brackets, read-out: solubility at pH 7.4): 84 µM; solubility ([1]; aqueous solution, aqueous buffer, pH 7.4, read-out: solubility at pH 7.4): 40 µg/mL; solubility ([1]; aqueous solution, simulated gastric fluid, pH 1, molar value in brackets, read-out: solubility at pH 1): > 4200 µM; solubility ([1]; aqueous solution, simulated gastric fluid, pH 1, read-out: solubility at pH 1): > 1500 µg/mL; % inhibition of radioligand binding at indicated concentration, A2A vs. [^3H]MSX-2 (rat A2A AR): 18% |
| CCn1c(=O)c2c(nc3n2CCN(Cc2cccc(C(F)(F)F)c2F)C3)n(C)c1=O [Compound 14l, 3-ethyl-8-(2-fluoro-3-(trifluoromethyl)benzyl)-1-methyl-6,7,8,9-tetrahydropyrazino[2,1-f]purine-2,4(1H,3H)-dione] | 8% | > 10000 nM | 2020 nM | 667 ± 68 nM | – |
